Results published in patent publication US12606543B2, “Indole derivatives as serotonergic agents useful for the treatment of disorders related thereto” (priority 2023, dated 2026).
Where two headings read alike, the source gives them in different places.

Assays:
[1] = molecular target: T1, human 5-hydroxytryptamine receptor 2A (5-HT2A) (Homo sapiens, UniProt P28223); assay: Human 5-HT2A functional FLIPR assay (agonist mode); assay type: cell-based; parameters: expressed in transfected cells; host or cells: Flp-In-293 (HEK293); settings: for RFU@10 μM: normalized fluorescence reading (Fmax−Fmin) at 10 μM, curve fitting with activation (%)
Experimental: The potential excitatory effects of compounds targeting human 5-hydroxytryptamine receptor 2A (5-HT2A) under agonist mode was assessed.
HTR2A&Gα15-HEK293 cells were cultured in DMEM medium containing 10% dialyzed FBS and 1× penicillin-streptomycin, 100 μg/mL Hygromycin B and 300 μg/mL G418. The cells were passaged about three times a week, maintained between ˜30% to ˜90% confluence.
2. For induction, 1 μg/ml tetracycline (final concentration) was added to cell culture medium and incubated for 48 hours prior to seeding cells into plate at 37° C., 5% (v/v) CO2. The cell culture medium was removed from flask. Cells were washed with DP BS.
9. 30 μL/well cell suspensions added into a 384-well cell plate (The cell density was 20,000 cells/well).
10 μL of assay buffer (20 mM HEPES, in 1×HBSS, pH 7.4) was added to each well of the cell plate.
2× dye solution was prepared following the manual of the FLIPR® Calcium 6 Assay Kit: • i. The dye was diluted with assay buffer. • ii. Probenecid was added to the final concentration of 5 mM. • iii. Vortexed vigorously for 1-2 minutes.
4. 10 μL of 2× dye solution was added to each well of the cell plate
6. The plate was incubated at 37° C. for 2 hours followed by an additional 15-minute incubation at 25° C.
1. Serotonin HCl was prepared to the concentration of 10 mM with DMSO.
2. The test compounds were prepared to the concentration of 10 mM with DMSO.
4. 3-folds serial dilutions were performed with DMSO.
5. 90 nL/well of serial diluted compounds was transferred from source plate to a 384-well compound plate by using an Echo.
6. 30 μL/well of assay buffer (20 mM HEPES in 1×HBSS, pH 7.4) was added to the compound plate.
2. 10 μL of 3× compounds transferred from the compound plate to the cell plate by FLIPR.
3. The plate was read for 160 sec with 1 sec interval and the data of agonist mode was obtained.
1. The normalized fluorescence reading (RFU) was calculated as shown below, wherein Fmax and Fmin stand for maximum and minimum of calcium signal during defined time window:
2. EC50 by fitting RFU against log of compound concentrations with Hill equation was calculated using XLfit.
2. 10 μL of assay buffer (20 mM HEPES, in 1×HBSS, pH 7.4) was added to each well of the cell plate.
3. 2× dye solution was prepared following the manual of the FLIPR® Calcium 6 Assay Kit: • i. The dye was diluted with assay buffer. • ii. Probenecid was added to the final concentration of 5 mM. • iii. Vortexed vigorously for 1-2 minutes.
1. The normalized fluorescence reading (RFU) was calculated as shown below, wherein Fmax and Fmin stand for maximum and minimum of calcium signal during defined time window: RFU=Fmax−Fmin

[2] = molecular target: T1, human 5-hydroxytryptamine receptor 2A (5-HT2A); assay: biochemical; assay type: binding
Experimental: The objective of this study was to evaluate the binding properties of exemplary compounds of Formula (I) on 5-hydroxytryptamine receptor 2A (5-HT2A).
1. The assay buffer was prepared following Table 17 below.
2. 8 doses of reference and test compounds starting from 10 mM stock solution as required were prepared by 5-fold serial dilutions with 100% (v/v) DMSO.
3. UniFilter-96 GF/B plate was pretreated: • i. 50 μl/well of 0.5% (v/v) PEI was added to UniFilter-96 GF/C plates. The plates were sealed and incubated at 4° C. for 3 hours (hrs). • ii. After incubation, the plates were washed 3 times with ice-cold wash buffer (50 mM Tris, pH7.4).
4. The assay plate was prepared: • i. Cell membrane was diluted with assay buffer and 330 μl/well was added to 96 round deep well plates to reach a concentration of 20 μg/well. • ii. 8 concentrations of reference or test compounds were prepared and 110 μl/well was added to 96 round deep well plates. • iii. [3H]-ketanserin was diluted with assay buffer to 5 nM (5× final concentration) and 110 μl/well was added to 96 round deep well plates.
5. The plate was centrifuged at 1000 rpm for 30 seconds (secs) and then agitated at 600 rpm at room temperature for 5 min.
6. The plates were sealed and the plate incubated at 27° C. for 90 min.
7. The incubation was stopped by vacuum filtration onto GF/B filter plates followed by 4 times washing with ice-cold wash buffer (50 mM Tris, pH7.4).
8. The filter plates were sealed and 40 μl/well of scintillation cocktail was added.
10. The plate was read by using a Microbeta^2 microplate counter.
1. For reference and test compounds, the results were expressed as % Inhibition, using the normalization equation: N=100−100×(U−C2)/(C1−C2), where U is the unknown value, C1 is the average of high controls, and C2 is the average of low controls.
2. The IC50 was determined by fitting percentage of inhibition as a function of compound concentrations with Hill equation using XLfit. […]
9. The filter plates were sealed and 40 μl/well of scintillation cocktail was added.

human 5-HT2A receptor = molecular target: T2, human 5-HT2A receptor (Homo sapiens, UniProt P28223); assay: Human 5-HT2A β-arrestin reporter assay; assay type: cell-based; settings: for Emax (% of serotonin): U2OS cells, relative to maximum response of serotonin
T2 construct: expressed in transfected cells; host or cells: U2OS
Experimental: Compound potency (EC50) and efficacy (Max response) against the human 5-HT2A receptor in stably transfected U2OS cells were determined in a G protein-coupled receptors (GPCR) cell based β-arrestin reporter assay.
(§1) Cells were seeded in a total volume of 20 μL into white walled, 384-well microplates and incubated at 37° C. overnight before analysis. For agonist determination, cells were incubated with samples to induce response. Intermediate dilution of sample stocks was performed to generate 5× samples in assay buffer. 5 μL of 5× samples were added to cells and incubated at 37° C. for 120 minutes. The final assay vehicle concentration was 1%. The results are expressed as percent efficacy relative to the maximum response of the control ligand (serotonin) in Table 10.
Compound potency (EC50) and efficacy (Max response) against the human 5-HT2A receptor in stably transfected U2OS cells was determined in a GPCR cell based β-arrestin reporter assay.
as §1, with “with sample” for “with samples”, “120 mins.” for “120 minutes.”, “Table 48.” for “Table 10.”

[3] = β-arrestin reporter, stably transfected U2OS cells, 120 min, read-out: EC50

T1 sequence (P28223 whole entry): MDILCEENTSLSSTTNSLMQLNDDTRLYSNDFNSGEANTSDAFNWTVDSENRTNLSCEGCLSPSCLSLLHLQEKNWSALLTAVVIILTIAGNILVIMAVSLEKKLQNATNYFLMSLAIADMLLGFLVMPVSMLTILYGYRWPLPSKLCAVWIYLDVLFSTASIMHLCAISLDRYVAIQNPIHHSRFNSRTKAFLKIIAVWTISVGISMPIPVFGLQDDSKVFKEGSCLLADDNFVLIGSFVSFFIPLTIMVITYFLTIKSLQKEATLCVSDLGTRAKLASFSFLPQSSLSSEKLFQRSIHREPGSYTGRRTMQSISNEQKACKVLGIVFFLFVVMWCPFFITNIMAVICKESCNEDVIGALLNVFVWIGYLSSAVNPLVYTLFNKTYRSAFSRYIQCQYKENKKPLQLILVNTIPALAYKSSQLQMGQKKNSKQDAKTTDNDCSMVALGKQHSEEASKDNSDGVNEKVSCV
T2 sequence (P28223 whole entry): as above

Row | Compound | EC50 [1] [nM] | RFU@10 μM [1] | IC50 [2] [nM] | EC50 (human 5-HT2A receptor) [nM] | Emax (% of serotonin) (human 5-HT2A receptor; β-arrestin reporter) | EC50 (human 5-HT2A receptor; [3]) [nM] | EC50 ([1]; FLIPR calcium, agonist mode, HTR2A&Gα15-HEK293 cells, read-out: h5-HT2A, EC50) [nM] | IC50 ([2]; [3H]-ketanserin displacement, cell membrane, 27° C., 90 min, read-out: h5-HT2A, IC50) [nM]
1 | [2H]C([2H])(c1c[nH]c2ccc(OCCCCCN3C(=O)C4CCCCC4C3=O)cc12)[C@H]1CCCN1C([2H])([2H])[2H] (mixture of isomers) [Rac (R) I-248] | 54 | 8,240 RFU | 310 | – | – | – | – | –
2 | CSc1ccc2[nH]cc(C[C@H]3CCCN3C)c2c1 [(R) I-1, (R)-3-((1-Methylpyrrolidin-2-yl)methyl)-5-(methylthio)-1H-indole] | 47 | 5,663 RFU | 154 | 25.4 | 79.27 % of serotonin | – | – | –
3 | COCCN1CCC[C@@H]1Cc1c[nH]c2ccc(OC)cc12 [(R) I-98, (R)-5-Methoxy-3-((1-(2-methoxyethyl)pyrrolidin-2-yl)methyl)-1H-indole] | 13 | 8,298 RFU | 350 | – | 81.67 % of serotonin | 25.8 | – | –
4 | [2H]C([2H])(c1c[nH]c2ccc(OCCCCN3C(=O)c4ccccc4C3=O)cc12)[C@H]1CCCN1C([2H])([2H])[2H] [(R) I-244, (R)-2-(4-((3-((1-(Methyl-d3)pyrrolidin-2-yl)methyl-d2)-1H-indol-5-yl)oxy)butyl)isoindoline-1,3-dione] | 50 | 7,945 RFU | 129 | – | 79.58 % of serotonin | 6.71 | – | –
5 | [2H]C([2H])(c1c[nH]c2ccc(OCCCCCN3C(=O)c4ccccc4C3=O)cc12)[C@H]1CCCN1C([2H])([2H])[2H] [(R) I-245, (R)-2-(5-((3-((1-(Methyl-d3)pyrrolidin-2-yl)methyl-d2)-1H-indol-5-yl)oxy)pentyl)isoindoline-1,3-dione] | 120 | 8,322 RFU | 225 | – | 82.18 % of serotonin | 28.4 | – | –
6 | [2H]C([2H])(c1c[nH]c2ccc(OCCCCCN3C(=O)[C@H]4CCCC[C@H]4C3=O)cc12)[C@H]1CCCN1C([2H])([2H])[2H] [Cis (R) I-248, 2-(5-((3-(((R)-1-(Methyl-d3)pyrrolidin-2-yl)methyl-d2)-1H-indol-5-yl)oxy)pentyl)hexahydro-1H-isoindole-1,3(2H)-dione] | – | – | – | – | 84.4 % of serotonin | 112 | – | –
7 | CN(C)CCc1c[nH]c2ccccc12 [DMT] | – | 3,493 RFU | – | – | 38.86 % of serotonin | 114 | 163 | 954
